Test results: patent US12606541B2, “PPARg modulators and methods of use” (Eisai R&D Management Co., Ltd., priority 2020, dated 2026)

What was measured:
His6-TEV-PPARγ-(234-505) = molecular target: T1, His6-TEV-PPARγ-(234-505) (Homo sapiens, UniProt P37231); test: TR-FRET Assay to Measure Co-R Peptide Recruitment to PPARγ; assay type: biochemical; conditions: Co-R peptide (SMRT-ID2) recruitment; top final concentration 20 μM; read-out: TR-FRET i-Ag; AC50
T1 construct: The His6-TEV-PPARγ-(234-505) protein for assay was expressed and purified; TEV cleavage site (N); made in house
T1 sequence (P37231 234-505): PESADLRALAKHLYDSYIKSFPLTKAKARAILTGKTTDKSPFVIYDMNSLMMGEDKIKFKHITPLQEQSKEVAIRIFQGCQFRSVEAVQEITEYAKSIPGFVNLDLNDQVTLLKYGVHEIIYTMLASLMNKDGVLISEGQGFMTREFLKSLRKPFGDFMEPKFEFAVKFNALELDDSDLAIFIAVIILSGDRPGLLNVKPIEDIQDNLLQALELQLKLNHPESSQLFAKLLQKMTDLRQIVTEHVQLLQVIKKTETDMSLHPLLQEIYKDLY
How it was run: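 His-tagged PPARγ (or controls) was preincubated with compound for 20 minutes at room temperature, then 5 nM anti-His terbium antibody and 200 nM FITC-labeled SMRT-ID2 corepressor peptide (final) were added for a further hour. TR-FRET signal was normalized to percent response using 500 nM T0070907 and DMSO controls.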

UM-UC-9 engineered cells = test: Cell proliferation / short-term viability assay, CellTiter-Glo 144 h; assay type: cell-based, human; conditions: Homo sapiens, UM-UC-9, 144 h, read-out: CTGlo 144 h UMUC9.5, G150
How it was run: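 UM-UC-9 engineered assay-ready cells seeded at 500 cells/well in high-glucose DMEM/10% FBS, treated from dose-response plates, grown at 37° C, 5% CO2. CellTiter-Glo 2.0 luminescence read on day 7, with a day-0 pretreatment plate as T0 reference and DMSO wells as negative control.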

AC50 (His6-TEV-PPARγ-(234-505)) [nM]	SMILES	IC50 (UM-UC-9 engineered cells) [nM]
119	COc1cc(-c2cc(C(=O)N3CCC(C(=O)NCc4ccc(C)o4)CC3)n[nH]2)c(Cl)cn1 [Example 189, 1-(5-(5-chloro-2-methoxypyridin-4-yl)-1H-pyrazole-3-carbonyl)-N-((5-methylfuran-2-yl)methyl)piperidine-4-carboxamide]	521
24	COc1cc(-c2cc(C(=O)N3CCC(C(=O)NCc4cccc5[nH]ccc45)CC3)n[nH]2)c(Cl)cn1 [Example 190, N-((1H-indol-4-yl)methyl)-1-(5-(5-chloro-2-methoxypyridin-4-yl)-1H-pyrazole-3-carbonyl)piperidine-4-carboxamide]	91.8
83.3	COc1cc(-c2cc(C(=O)N3CCC(C(=O)NCc4cccc5[nH]ncc45)CC3)n[nH]2)c(Cl)cn1 [Example 192, N-((1H-indazol-4-yl)methyl)-1-(5-(5-chloro-2-methoxypyridin-4-yl)-1H-pyrazole-3-carbonyl)piperidine-4-carboxamide]	375
394	COc1cc(-c2cc(C(=O)N3CCC(C(=O)NCc4ncc(C(F)(F)F)cc4Cl)CC3)n[nH]2)c(Cl)cn1 [Example 193, 1-(5-(5-chloro-2-methoxypyridin-4-yl)-1H-pyrazole-3-carbonyl)-N-((3-chloro-5-(trifluoromethyl)pyridin-2-yl)methyl)piperidine-4-carboxamide]	1200
808	COc1cc(-c2cc(C(=O)N3CCC(C(=O)NCc4cccc5cc[nH]c45)CC3)n[nH]2)c(Cl)cn1 [Example 194, N-((1H-indol-7-yl)methyl)-1-(5-(5-chloro-2-methoxypyridin-4-yl)-1H-pyrazole-3-carbonyl)piperidine-4-carboxamide]	484
610	COc1cc(-c2cc(C(=O)N3CCC(C(=O)NC4CCN(c5ccccc5)CC4)CC3)n[nH]2)c(Cl)cn1 [Example 196, 1-(5-(5-chloro-2-methoxypyridin-4-yl)-1H-pyrazole-3-carbonyl)-N-(1-phenylpiperidin-4-yl)piperidine-4-carboxamide]	1030
197	COc1cc(-c2cc(C(=O)N3CCC(C(=O)NCc4ccc5n[nH]nc5c4)CC3)n[nH]2)c(Cl)cn1 [Example 197, N-((2H-benzo[d][1,2,3]triazol-5-yl)methyl)-1-(5-(5-chloro-2-methoxypyridin-4-yl)-1H-pyrazole-3-carbonyl)piperidine-4-carboxamide]	3930
917	COc1cc(-c2cc(C(=O)N3CCC(C(=O)N[C@H]4CC[C@](C)(O)CC4)CC3)n[nH]2)c(Cl)cn1 [Example 198, 1-(5-(5-chloro-2-methoxypyridin-4-yl)-1H-pyrazole-3-carbonyl)-N-((1r,4r)-4-hydroxy-4-methylcyclohexyl)piperidine-4-carboxamide]	4160
32	COc1cc(-c2cc(C(=O)N3CCC(C(=O)N[C@H]4CC[C@@](O)(C(F)(F)F)CC4)CC3)n[nH]2)c(Cl)cn1 [Example 199, 1-(5-(5-chloro-2-methoxypyridin-4-yl)-1H-pyrazole-3-carbonyl)-N-((1r,4r)-4-hydroxy-4-(trifluoromethyl)cyclohexyl)piperidine-4-carboxamide]	140
112	COc1cc(-c2cc(C(=O)N3CCC(C(=O)NCc4ccc5[nH]nc(F)c5c4)CC3)n[nH]2)c(F)cn1 [Example 200, N-((3-fluoro-1H-indazol-5-yl)methyl)-1-(5-(5-fluoro-2-methoxypyridin-4-yl)-1H-pyrazole-3-carbonyl)piperidine-4-carboxamide]	71.5
77.5	COc1cc(-c2cc(C(=O)N3CCC(C(=O)NCc4n[nH]c5ccccc45)CC3)n[nH]2)c(Cl)cn1 [Example 201, N-((1H-indazol-3-yl)methyl)-1-(5-(5-chloro-2-methoxypyridin-4-yl)-1H-pyrazole-3-carbonyl)piperidine-4-carboxamide]	171
136	COc1cc(-c2cc(C(=O)N3CCC(C(=O)NCc4c[nH]c5ncccc45)CC3)n[nH]2)c(Cl)cn1 [Example 202, N-((1H-pyrrolo[2,3-b]pyridin-3-yl)methyl)-1-(5-(5-chloro-2-methoxypyridin-4-yl)-1H-pyrazole-3-carbonyl)piperidine-4-carboxamide]	1590
77.4	COc1cc(-c2cc(C(=O)N3CCC(C(=O)NCc4ccc5[nH]c(C)cc5c4)CC3)n[nH]2)c(Cl)cn1 [Example 203, 1-(5-(5-chloro-2-methoxypyridin-4-yl)-1H-pyrazole-3-carbonyl)-N-((2-methyl-1H-indol-5-yl)methyl)piperidine-4-carboxamide]	96.4

More lines, now with the values behind:

SMILES	AC50 (His6-TEV-PPARγ-(234-505)) [nM]	IC50 (UM-UC-9 engineered cells) [nM]
COc1cc(-c2cc(C(=O)N3CCC(O)(C(=O)NCc4cccc(Cl)c4)CC3)n[nH]2)c(Cl)cn1 [Example 171, 1-(5-(5-chloro-2-methoxypyridin-4-yl)-1H-pyrazole-3-carbonyl)-N-(3-chlorobenzyl)-4-hydroxypiperidine-4-carboxamide]	210	1550
COc1cc(-c2cc(C(=O)N3CCC(F)(C(=O)NCc4cccc(Cl)c4)CC3)n[nH]2)c(Cl)cn1 [Example 174, 1-(5-(5-chloro-2-methoxypyridin-4-yl)-1H-pyrazole-3-carbonyl)-N-(3-chlorobenzyl)-4-fluoropiperidine-4-carboxamide]	125	407
COc1cc(-c2cc(C(=O)N3CCC(C(=O)NCc4ccc(C)cn4)CC3)n[nH]2)c(Cl)cn1 [Example 176, 1-(5-(5-chloro-2-methoxypyridin-4-yl)-1H-pyrazole-3-carbonyl)-N-((5-methylpyridin-2-yl)methyl)piperidine-4-carboxamide]	376	1840
COc1cc(-c2cc(C(=O)N3CCC(C(=O)NCc4ccc(C(F)(F)F)nc4)CC3)n[nH]2)c(Cl)cn1 [Example 178, 1-(5-(5-chloro-2-methoxypyridin-4-yl)-1H-pyrazole-3-carbonyl)-N-((6-(trifluoro-15-methyl)pyridin-3-yl)methyl)piperidine-4-carboxamide]	344	1260
COc1cc(-c2cc(C(=O)N3CCC(C(=O)NCc4cncc(Cl)c4)CC3)n[nH]2)c(Cl)cn1 [Example 179, 1-(5-(5-chloro-2-methoxypyridin-4-yl)-1H-pyrazole-3-carbonyl)-N-((5-chloropyridin-3-yl)methyl)piperidine-4-carboxamide]	321	1530
COc1cc(-c2cc(C(=O)N3CCC(C(=O)NCc4ccc5cn[nH]c5c4)CC3)n[nH]2)c(Cl)cn1 [Example 180, N-((1H-indazol-6-yl)methyl)-1-(5-(5-chloro-2-methoxypyridin-4-yl)-1H-pyrazole-3-carbonyl)piperidine-4-carboxamide]	144	707
COc1cc(-c2cc(C(=O)N3CCC(C(=O)NCc4c[nH]c5ccccc45)CC3)n[nH]2)c(Cl)cn1 [Example 181, N-((1H-indol-3-yl)methyl)-1-(5-(5-chloro-2-methoxypyridin-4-yl)-1H-pyrazole-3-carbonyl)piperidine-4-carboxamide]	56.2	85.6
COc1cc(-c2cc(C(=O)N3CCC(C(=O)NCc4ccc5cnccc5c4)CC3)n[nH]2)c(Cl)cn1 [Example 182, 1-(5-(5-chloro-2-methoxypyridin-4-yl)-1H-pyrazole-3-carbonyl)-N (isoquinolin-6-ylmethyl)piperidine-4-carboxamide]	422	1600
COc1cc(-c2cc(C(=O)N3CCC(C(=O)NC4CC(=O)N(c5ccccc5)C4)CC3)n[nH]2)c(Cl)cn1 (centres unmarked) [Example 183, 1-(5-(5-chloro-2-methoxypyridin-4-yl)-1H-pyrazole-3-carbonyl)-N-(5-oxo-1-phenylpyrrolidin-3-yl)piperidine-4-carboxamide]	233	1650
COc1cc(-c2cc(C(=O)N3CCC(C(=O)NC4CCOc5ccccc54)CC3)n[nH]2)c(Cl)cn1 (centres unmarked) [Example 184, 1-(5-(5-chloro-2-methoxypyridin-4-yl)-1H-pyrazole-3-carbonyl)-N (chroman-4-yl)piperidine-4-carboxamide]	215	384
COc1cc(-c2cc(C(=O)N3CCC(C(=O)NCc4cn(C)c5ccccc45)CC3)n[nH]2)c(Cl)cn1 [Example 187, 1-(5-(5-chloro-2-methoxypyridin-4-yl)-1H-pyrazole-3-carbonyl)-N-((1-methyl-1H-indol-3-yl)methyl)piperidine-4-carboxamide]	41.7	114
COc1cc(-c2cc(C(=O)N3CCC(C(=O)NCc4ccc5cc[nH]c5c4)CC3)n[nH]2)c(Cl)cn1 [Example 188, N-((1H-indol-6-yl)methyl)-1-(5-(5-chloro-2-methoxypyridin-4-yl)-1H-pyrazole-3-carbonyl)piperidine-4-carboxamide]	79.8	211
